Source: PMC9460038, “Antigiardial Activity of Foeniculum vulgare Hexane Extract and Some of Its Constituents” (Plants, 2022)
≈ marks a conversion by molar mass, not a printed value. Like-named read-outs stand apart in the source and are kept apart here.

How the values were obtained:
Vero cells = test: Cytotoxic activity on Vero cell line (Trypan blue, 24 h); type: cell-based; conditions: for IC50: Chlorocebus sabaeus, read-out: Vero Cells IC50 (IC95%); for IC50 / Vero Cells IC50 (IC95%): 24 h; for Selectivity Index (SI): ratio of IC50 in Vero cells to IC50 in G. duodenalis
Method: Cytotoxicity assay was performed on Vero cell line (ATCC CCL-81), as previously described. Briefly, Vero cells were cultivated in Roswell Park Memorial Institute (RPMI) medium supplemented with 10% fetal bovine serum (FBS). […] Each compound was dissolved in dimethyl sulfoxide (DMSO) and sterilized by filtration, and brought to final concentrations of 487, 243.5, 121.75 and 60.875 μg/mL with RPMI medium supplemented with 10% FBS. The cell suspension was adjusted to 1 × 10^4 cells/mL with RPMI medium supplemented with 10% FBS. Cell suspension (200 μL) was placed into a 96-well plate and incubated at 37 °C in a 5% CO2 atmosphere for 24 h. Each compound solution was added to each well containing the Vero cells and incubated for 24 h. The assay was carried out in triplicate. The number of cells were determined in a Neubauer chamber, while the percentage of viable cells was measured with the Trypan blue staining method.
The SI is the ratio of the IC50 concentration in host cells (Vero cells) to that in parasite (G. duodenalis).

[1] = tested on: G. duodenalis trophozoites; test: Antigiardial activity, vial microassay (growth inhibition of trophozoites, 24 h); conditions: for inhibition at 300 µg/mL / IC50: Giardia duodenalis; for inhibition at 300 µg/mL: read-out: % Inhibition at 300 μg/mL; for G. duodenalis IC50 (IC95%): trophozoites, Probit, 95% confidence limits in brackets; for % Inhibition at 300 μg/mL: G. duodenalis trophozoites
Method: G. duodenalis strain 0989: IMSS was used. G. duodenalis was cultured in TYI-S-33 media supplemented with bile, as previously described [26]. G. duodenalis trophozoites were sub-cultured three times a week. Parasites used in the assays to determine drug susceptibility were harvested when cultures reached the middle of their logarithmic growth phase.
The concentration of all standard drugs was adjusted to 10 mg/mL. Metronidazole (used as a positive control), and pure compounds were dissolved in (DMSO). All stock solutions were stored at –20 °C until use. Before use in the assays, serial two-fold dilutions of the stock solutions were made in basal TYI medium (without serum). Fifty micro liters of each solution was added into 1 mL glass screw-capped cylindrical vials with a conical interior (Wheaton vial). All vials were filled with 950 μL of a freshly prepared parasite suspension in TYI-S-33 medium plus 10 % bovine serum. G. duodenalis was tested at density of 2 × 10^5 trophozoites/mL. All vials were incubated at 36 °C for 24 h. The vials were then chilled on iced water for 20 min, and the number of trophozoites per milliliter in each tube were counted using a hemocytometer (Neubauer cell-counter chamber) [29]. The percentage of growth inhibition with respect to untreated controls was then determined.
All experiments were performed in triplicate and in at least three independent bioassays (n = 9 cultures for each analyzed compound). The data were analyzed using GraphPad Prism software version 5.0 (USA). The half-maximum inhibitory concentration (IC50) of each drug was calculated by Probit analysis and 95% confidence limits were calculated.

[2] = source not stated; cited from earlier work
[3] = tested on: Mycobacterium tuberculosis H37Rv; design: method as in PMID 22797778; conditions: sensitive strain H37Rv; cited from earlier work
[4] = Vero cells, Probit, 95% confidence limits in brackets
[5] = read-out: G. duodenalis IC50 (IC95%), trophozoites, 24 h, Probit, 95% confidence limits in brackets

Compound: CCCCCC/C=C/C=C/C=O [Trans, trans-2,4-undecadienal, trans, trans-2,4-undecadienal]
- IC50 (Vero cells; [4]): 589 µg/mL (≈ 3540 µM)
- Selectivity Index (SI) (Vero cells): 8.1
- inhibition at 300 µg/mL [1]: 97%
- IC50 [1, 5]: 72.1 µg/mL (≈ 434 µM)
- G. duodenalis IC50 (IC95%) [1]: 72.1 (57.7–90.1) μg/mL
- log P [2]: 3.8
- MIC [3]: 25 µg/mL (≈ 150 µM)

Compound: C=CCc1ccc(OC)cc1 [Estragole]
- IC50 (Vero cells; Vero): 259 µg/mL (≈ 1750 µM)
- Selectivity Index (SI) (Vero cells): 1.7
- inhibition at 300 µg/mL [1]: 49%
- IC50 ([1]; read-out: G. duodenalis IC50 (IC95%)): 150 µg/mL (≈ 1010 µM)

Compound: CC(C)(O)C(C)(C)O [Pinacol]
- inhibition at 300 µg/mL [1]: 2%

Compound: CC1=CCC(C(C)C)=CC1 [γ-Terpinene]
- inhibition at 300 µg/mL [1]: 24%

Compound: Oc1cccc(O)c1 [1,3-Benzenediol]
- IC50 (Vero cells; [4]): 438 µg/mL (≈ 3980 µM)
- Selectivity Index (SI) (Vero cells): 2.5
- inhibition at 300 µg/mL [1]: 56%
- IC50 [1, 5]: 169 µg/mL (≈ 1530 µM)

Compound: CC(C)[C@]12CC(=O)[C@H](C)[C@H]1C2 [(−)-α-Tujone]
- % Inhibition at 300 μg/mL [1]: 14%

Compound: CC1(C)C(=O)[C@@]2(C)CCC1C2 [(S) (+)-Fenchone]
- % Inhibition at 300 μg/mL [1]: 16%

Compound: CC1(C)C(=O)[C@]2(C)CCC1C2 [(R) (−)-Fenchone]
- % Inhibition at 300 μg/mL [1]: 6.5%

Compound: C/C=C/c1ccc(OC)cc1 [Trans-anethol]
- % Inhibition at 300 μg/mL [1]: 17%

Compound: (R) (−)-Carvone
- Vero Cells IC50 (IC95%) (Vero cells; [4]): 350.7 (348.4–353.0) μg/mL
- % Inhibition at 300 μg/mL [1]: 66%
- G. duodenalis IC50 (IC95%) [1]: 207.0 (162.2–267.3) μg/mL

Compound: CC(C)=CCC[C@@H](C)CCO [(R)- (+)-β-Citronellol]
- % Inhibition at 300 μg/mL [1]: 38%

Compound: CCCCCCCCCCC=O [Undecanal]
- inhibition at 300 µg/mL [1]: 25%

Compound: Cc1ncc([N+](=O)[O-])n1CCO [Metronidazole, reference compound]
- IC50 (Vero cells; [4]): 83.5 µg/mL (≈ 488 µM)
- inhibition at 300 µg/mL [1]: 100%
- IC50 [1, 5]: 0.5 µg/mL (≈ 2.92 µM)

Compound: CC1=CCC(=C(C)C)CC1 [Terpinolene]
- inhibition at 300 µg/mL [1]: 30%

Compound: C=C1[C@H]2CC[C@H](C2)C1(C)C [(1R,4S) (+)-Camphene]
- Vero Cells IC50 (IC95%) (Vero cells; [4]): 494.3 (492.1–496.4) μg/mL
- % Inhibition at 300 μg/mL [1]: 61%
- G. duodenalis IC50 (IC95%) [1]: 181.1 (158.1–207.9) μg/mL

Compound: CC(=O)OC1C2(C)CCC(C2)C1(C)C (stereo not shown) [Fenchylacetate]
- % Inhibition at 300 μg/mL [1]: 38.5%

Compound: COc1ccc(C=O)cc1 [p-Anisaldehyde]
- IC50 (Vero cells; [4]): 541 µg/mL (≈ 3970 µM)
- Selectivity Index (SI) (Vero cells): 2.7
- inhibition at 300 µg/mL [1]: 67%
- IC50 [1, 5]: 197 µg/mL (≈ 1450 µM)

Compound: Cc1ccccc1C(C)C [o-Cymene]
- % Inhibition at 300 μg/mL [1]: 30%

Compound: CCCCCCCC/C=C\CCCCCCCC(=O)O [Oleic acid]
- inhibition at 300 µg/mL [1]: 24%
